Assay [1] concerns nociceptive sensitivity of the mice of the control (“Sham”) group. The assay can be described thus: von Frey filament test in control (Sham) mice operated without cuff. The format is in vivo, C57BL/6J mice. As to conditions: for Sensitivity of control (Sham) animals under chronic treatment, recapitulation (FIG. 26): chronic treatment (14-21 days), doses and modes as in examples 2, 7, 9 to 14 and 20 (formoterol 0.5 mg/kg, terbutalin 5 mg/kg); for Nociceptive sensitivity of control (Sham) mice under chronic treatment: repeated injections, doses and modes as for the Cuff mice of the same example; for Sensitivity of control (Sham) animals, dose-response recapitulation (FIG. 21): terbutalin 0.125, 0.25, 0.5 or 5 mg/kg, nortriptylin 5 mg/kg, twice a day, 3 weeks.
Description: (§1) The experiments were carried out on adult male mice. The pharmacological experiments were carried out using C57BL/6J mice (3-to-6 weeks old on their arrival, Charles River, L'Arbresle, France).
(§2) The model is obtained by placing a polyethylene cuff around the main branch of the right sciatic nerve of each mouse. Before any surgical procedure, the mice were assigned to the various experimental groups in such a way that the baseline mechanical nociception threshold and the weight are equivalent between the various groups. The surgical procedure was carried out under ketamin-xylazin anesthesia (ketamin: 17 mg/ml, xylazin 2.5 mg/ml, intraperitoneal injection in a proportion of 4 ml/kg) (limited liability company Centravet, Taden, France). The common branch of the sciatic nerve was exposed and a section 2 mm long of a hollow PE-20 polyethylene tube (“Harvard Apparatus”, Les Ulis, France) was placed around said branch (“Cuff” group). […] Control mice were operated on according to the same procedure, but without placing the cuff (“Sham” group). The experimental groups are made up of at least 4 mice for each control (“Sham”) group and at least 5 mice for each neuropathic (“Cuff”) group.
(§3) The mice are placed in transparent Plexiglas (registered trademark) boxes (7 cm×9 cm×7 cm) placed on a raised grid. Before the test, the mice are allowed to become accustomed to this device for 15 minutes. During the test, the von Frey filaments are applied to the plantar surface of each back foot according to ascending forces (from 0.16 g up to a foot withdrawal response, or up to a maximum of 10 g). Each filament is tested 5 times per foot and the threshold is defined by the presence of 3 or more withdrawals observed over the 5 tests. Before the surgery as described above, the animals were pretested in order to establish their baseline nociceptive response. During the chronic treatment experiments and those of repeated injection of antagonists, the tests are carried out in the mornings before the first injection of the day. During the acute agonist injection experiments, the tests are carried out after the first injection according to the time course as presented on the graphs.
(§4) For all the treatments carried out by injection, said injections were given intraperitoneally in a volume of 50 microL per 10 mg of body weight.

The test system of assay [2] is mechanical allodynia of the neuropathic (“Cuff”) mice. Description: Sciatic nerve cuff murine model of neuropathic pain, von Frey filament test in neuropathic (Cuff) mice. Particulars: for Mechanical allodynia of Cuff mice after the first (acute) injection: mice neuropathic for 2 weeks; for Allodynia in neuropathic (Cuff) animals after chronic treatment, recapitulation (FIG. 25): chronic treatment (14-21 days), doses and modes as in examples 7, 9 to 14 and 20 (formoterol 0.5 mg/kg, terbutalin 5 mg/kg); for Effect on neuropathic allodynia acutely after the first injection, summary statement: first injection of the agonist, doses as in examples 7, 9, 11 and 15. The assay is classed as in vivo, C57BL/6J mice.
Description: as §1
All the experiments began with mice that were 6-to-9 weeks old. […] For all the other experiments, the mice were combined at four to five per cage and kept under alternating 12-hour day/night (light at 6 am) with food and water ad libitum.
as §2, §3
The surgery for installing the cuff corresponds to day 0.
as §4

Assay [3] has the same test system. The assay can be described thus: Cotreatment with adrenoreceptor antagonists in Cuff mice relieved by chronic nortriptylin or beta-agonist treatment, von Frey test. Particulars: for Effect of coadministered beta2-adrenoreceptor antagonist ICI 118,551 on the allodynia of agonist-treated Cuff mice: ICI 118,551 2 mg/kg intraperitoneal, after 3 weeks of agonist treatment (doses as in chronic treatment; terbutalin 0.5 mg/kg), 3 to 6 days of cotreatment; for Effect of ICI 118,551 on the therapeutic effect of chronic agonist treatment on neuropathic allodynia, summary statement: chronic treatment with the agonist plus beta2-adrenoreceptor antagonist ICI 118,551. The assay is classed as in vivo, C57BL/6J mice.

Assay [4] has the same test system. As to conditions: as previously published (Benbouzid et al. 2008); cited from earlier work.
Setting [5] is: 0.5 mg/kg, injection twice a day, chronic.
The mark [6] stands for this setting: 5 mg/kg, injection twice a day (morning and evening), chronic.

Entries after “also recorded” stand apart in the source; their conditions may differ.

`CC(C)(C)NCC(O)c1cc(O)cc(O)c1` (stereo not shown) [terbutalin]: in assay [1], the “Sensitivity of control (Sham) animals under chronic treatment, recapitulation (FIG. 26)” value (“Sensitivity of control … (FIG. 26)” below) is given as “do not affect the control animals; also recorded: does not aspecifically affect the sensitivity of the control animals”; the “Nociceptive sensitivity of control (Sham) mice under chronic treatment” value (“Nociceptive sensitivity of control” below) is given as “not affected”; the “Sensitivity of control (Sham) animals, dose-response recapitulation (FIG. 21)” value is on record as “do not affect”. Moreover, the “Mechanical allodynia of the right (neuropathic) foot after chronic treatment” value in assay [2] (0.125 mg/kg, injection twice a day, chronic) is reported as “completely suppress the mechanical allodynia”. Also, the “Mechanical allodynia of the right (neuropathic) foot after chronic treatment” value in assay [2] (0.25 mg/kg, injection twice a day, chronic) was “completely suppress the mechanical allodynia”. In assay [2] (setting [5]), the “Mechanical allodynia in neuropathic (Cuff) mice after chronic treatment” value is listed as “completely suppresses the mechanical allodynia” and the “Response of the non-neuropathic left foot (foot without surgery) of Cuff mice” value is listed as “without aspecifically affecting the response”. Besides, in assay [2] (setting [6]), the “Mechanical allodynia in neuropathic (Cuff) mice after chronic treatment” value is on record as “completely suppresses the mechanical allodynia”. The “Mechanical allodynia of Cuff mice after the first (acute) injection” value (“Mechanical allodynia of Cuff mice” below) in assay [2] (5 mg/kg, intraperitoneal) was “has no effect on the mechanical allodynia”. Moreover, the “Mechanical allodynia in neuropathic (Cuff) mice after chronic application of a gel to the skin” value in assay [2] (0.1 ml of gel twice a day, 2.5 mg/ml terbutalin hemisulfate in 5% hydroxyethylcellulose gel, from 8 days after surgery) is “relieves the mechanical allodynia; also recorded: relieves neuropathic allodynia”. Further, the “Mechanical sensitivity of the non-neuropathic left foot of Cuff mice (FIG. 21)” value in assay [2] (0.125, 0.25, 0.5 or 5 mg/kg twice a day, chronic (3 weeks)) is recorded as “without affecting the mechanical sensitivity”. Further, the “Allodynia of the neuropathic right foot, dose-response recapitulation (FIG. 21)” value in assay [2] (0.125, 0.25, 0.5 or 5 mg/kg twice a day, chronic (3 weeks), averaged over third week) is given as “suppresses the allodynia”. For the same molecule, in assay [2], the “Allodynia in neuropathic (Cuff) animals after chronic treatment, recapitulation (FIG. 25)” value (from here on “Allodynia in neuropathic (Cuff) animals”) is “relieve this allodynia; also recorded: causes the neuropathic pain, for example the neuropathic allodynia, to completely disappear” and the “Effect on neuropathic allodynia acutely after the first injection, summary statement” value (shortened to “Effect on neuropathic allodynia acutely”) was “not observed acutely after the first injection”. Besides, the “Mechanical allodynia in neuropathic (Cuff) mice with subcutaneous implant (continuous delivery)” value in assay [2] (silicone tube implant containing 10 mg terbutalin hemisulfate, inserted 14 days after surgery) was “relieves the mechanical allodynia; also recorded: relieves neuropathic allodynia”. Besides, in assay [3], the “Effect of coadministered beta2-adrenoreceptor antagonist ICI 118,551 on the allodynia of agonist-treated Cuff mice” value (“Effect … of agonist-treated Cuff mice” for short) is “causes the allodynia to reappear” and the “Effect of ICI 118,551 on the therapeutic effect of chronic agonist treatment on neuropathic allodynia, summary statement” value is “blocks the therapeutic effect”.
Consider `CC(C)(C)NCC(O)c1cc(Cl)c(N)c(Cl)c1` (stereo not shown) [clenbuterol], for which, in assay [1], the “Sensitivity of control … (FIG. 26)” value is on record as “do not affect the control animals; also recorded: does not aspecifically affect the sensitivity of the control animals” and the “Nociceptive sensitivity of control” value is “not affected”. Moreover, in assay [1] (clenbuterol 0.3 mg/kg, intraperitoneal, first injection), the “Control (Sham) mice after the first administration” value is recorded as “unaffected”. Further, the “Mechanical allodynia of Cuff mice” value in assay [2] (0.3 mg/kg, intraperitoneal) is given as “has no effect on the mechanical allodynia”. Also, the “Mechanical allodynia in neuropathic (Cuff) mice after chronic treatment” value in assay [2] (0.3 mg/kg, intraperitoneal, twice a day, chronic) is “completely suppresses the mechanical allodynia”. For the same molecule, in assay [2], the “Allodynia in neuropathic (Cuff) animals” value is listed as “relieve this allodynia; also recorded: causes the neuropathic pain, for example the neuropathic allodynia, to completely disappear” and the “Effect on neuropathic allodynia acutely” value is recorded as “not observed acutely after the first injection”. Moreover, in assay [3], the “Effect … of agonist-treated Cuff mice” value is listed as “causes the allodynia to reappear” and the “Effect of ICI 118,551 on the therapeutic effect of chronic agonist treatment on neuropathic allodynia, summary statement” value is reported as “blocks the therapeutic effect”.
As for `CNCCC=C1c2ccccc2CCc2ccccc21` [nortriptylin], in assay [1], the “Sensitivity of control … (FIG. 26)” value is “does not impair the sensitivity of control animals”; the “Nociceptive sensitivity of control” value was “not affected”; the “Sensitivity of control (Sham) animals, dose-response recapitulation (FIG. 21)” value is “does not impair the sensitivity of control animals”. The “Mechanical allodynia in neuropathic (Cuff) mice after chronic treatment” value in assay [2] (setting [6]) is recorded as “ineffective initially, but subsequently causes the allodynia to completely disappear”. The “Sensitivity of the neuropathic mouse model to chronic treatment with a tricyclic antidepressant” value in assay [4] is on record as “sensitive to chronic treatment”.
For the molecule `OCc1cc(C(O)CNCCCCCCOCCCCc2ccccc2)ccc1O` (stereo not shown) [salmeterol], in assay [1], the “Sensitivity of control … (FIG. 26)” value is “do not affect the control animals; also recorded: does not aspecifically affect the sensitivity of the control animals” and the “Nociceptive sensitivity of control” value is “not affected”. For the same molecule, the “Mechanical allodynia in neuropathic (Cuff) mice after chronic treatment” value in assay [2] (1 mg/kg, injection twice a day, chronic) is “completely suppresses the mechanical allodynia”. The “Mechanical allodynia of Cuff mice” value in assay [2] (1 mg/kg, intraperitoneal) is reported as “has no effect on the mechanical allodynia”. Further, in assay [2], the “Allodynia in neuropathic (Cuff) animals” value is reported as “relieve this allodynia; also recorded: causes the neuropathic pain, for example the neuropathic allodynia, to completely disappear” and the “Effect on neuropathic allodynia acutely” value is on record as “not observed acutely after the first injection”. Moreover, the “Mechanical allodynia in neuropathic (Cuff) mice after chronic treatment by inhalation” value in assay [2] (salmeterol xinafoate inhaler (Serevent), twice a day, 50 μg per session for 2 weeks, then inhaler pressed four times per session for 9 days) was “relieves the mechanical allodynia; also recorded: relieves neuropathic allodynia”. In assay [3], the “Effect … of agonist-treated Cuff mice” value is given as “causes the allodynia to reappear” and the “Effect of ICI 118,551 on the therapeutic effect of chronic agonist treatment on neuropathic allodynia, summary statement” value is listed as “blocks the therapeutic effect”.
Turning to `CN(C)CCC=C1c2ccccc2CCc2ccccc21` [amitriptylin], in assay [4], the “Sensitivity of the neuropathic mouse model to chronic treatment with a tricyclic antidepressant” value is on record as “sensitive to chronic treatment”.
As to `CC(Cc1ccc(O)cc1)NCC(O)c1cc(O)cc(O)c1` (stereo not shown) [fenoterol], in assay [1], the “Sensitivity of control … (FIG. 26)” value is “do not affect the control animals; also recorded: does not aspecifically affect the sensitivity of the control animals” and the “Nociceptive sensitivity of control” value was “not affected”. Further, in assay [2] (0.7 mg/kg, intraperitoneal), the “Mechanical allodynia of Cuff mice” value was “has no effect on the mechanical allodynia”. In assay [2] (0.7 mg/kg, twice a day, chronic), the “Mechanical allodynia in neuropathic (Cuff) mice after chronic treatment” value is on record as “completely suppresses the mechanical allodynia”. In assay [2], the “Allodynia in neuropathic (Cuff) animals” value is “relieve this allodynia; also recorded: causes the neuropathic pain, for example the neuropathic allodynia, to completely disappear” and the “Effect on neuropathic allodynia acutely” value is “not observed acutely after the first injection”. Besides, in assay [3], the “Effect … of agonist-treated Cuff mice” value was “causes the allodynia to reappear” and the “Effect of ICI 118,551 on the therapeutic effect of chronic agonist treatment on neuropathic allodynia, summary statement” value is given as “blocks the therapeutic effect”.
With `CC(NCCc1ccc(O)cc1)C(O)c1ccc(O)cc1` (stereo not shown) [ritodrin], the “Sensitivity of control … (FIG. 26)” value in assay [1] is “do not affect the control animals; also recorded: does not aspecifically affect the sensitivity of the control animals”. For the same molecule, in assay [2] (10 mg/kg, injection twice a day, chronic), the “Mechanical allodynia in neuropathic (Cuff) mice after chronic treatment” value is listed as “completely suppresses the mechanical allodynia”. The “Allodynia in neuropathic (Cuff) animals” value in assay [2] is “relieve this allodynia; also recorded: causes the neuropathic pain, for example the neuropathic allodynia, to completely disappear”. In assay [3], the “Effect … of agonist-treated Cuff mice” value is on record as “causes the allodynia to reappear” and the “Effect of ICI 118,551 on the therapeutic effect of chronic agonist treatment on neuropathic allodynia, summary statement” value is given as “blocks the therapeutic effect”.
With `CCC(NC(C)C)C(O)c1ccc(O)c2[nH]c(=O)ccc12` (stereo not shown) [procaterol], the “Sensitivity of control … (FIG. 26)” value in assay [1] is on record as “do not affect the control animals; also recorded: does not aspecifically affect the sensitivity of the control animals”. Moreover, the “Mechanical allodynia in neuropathic (Cuff) mice after chronic treatment” value in assay [2] (0.8 mg/kg, injection twice a day, chronic) was “completely suppresses the mechanical allodynia”. Further, the “Allodynia in neuropathic (Cuff) animals” value in assay [2] was “relieve this allodynia; also recorded: causes the neuropathic pain, for example the neuropathic allodynia, to completely disappear”. For the same molecule, the “Effect of ICI 118,551 on the therapeutic effect of chronic agonist treatment on neuropathic allodynia, summary statement” value in assay [3] is recorded as “blocks the therapeutic effect”.
